In ChEMBL document CHEMBL1133190, “SPR biosensor studies of the direct interaction between 27 drugs and a liposome surface: correlation with fraction absorbed in humans” (J Med Chem, 2000):

Experiments:
Liposome [1] = assay: (§1) Binding to POPC (palmitoyl-oleolyl-phosphatidyl-choline) liposomes using biosensor system; format: functional
Liposome [2] = assay: (§2) Binding to POPC/GMI liposomes using biosensor system; format: functional
Liposome [3] = assay: as §2
Liposome [4] = assay: as §1
[5] = Estimation of fraction absorbed (Fa) in the human intestine using biosensor technology.; format: ADME, organism-based; settings: in vivo

SMILES	Other (Liposome [1])	Other (Liposome [2])	Other (Liposome [3])	Other (Liposome [4])	Fa [5] [%]
C=CCc1ccccc1OCC(O)CNC(C)C (stereo unspecified)	297	480	–	–	–
O=C(O)P(=O)(O)O	–	–	62	32	–
OC[C@@H](O)[C@@H](O)[C@H](O)[C@H](O)CO	22	29	–	–	–
CCN1CCCC1CNC(=O)c1cc(S(N)(=O)=O)ccc1OC (stereo unspecified)	47	78	–	–	–
CNCCCN1c2ccccc2CCc2ccccc21 [DESIPRAMINE]	1010	1200	–	–	100
NS(=O)(=O)c1cc2c(cc1Cl)NCNS2(=O)=O [HYDROCHLOROTHIAZIDE]	60	95	–	–	55
CC(C)(C)NCC(O)c1cc(O)cc(O)c1 (stereo unspecified)	–	–	117	47	–
CC1(C)S[C@@H]2[C@H](NC(=O)[C@H](N)c3ccc(O)cc3)C(=O)N2[C@H]1C(=O)O [AMOXICILLIN]	17	9	–	–	90
OC[C@H]1OC(O)[C@H](O)[C@@H](O)[C@@H]1O (stereo partly specified) [DEXTROSE]	18	10	–	–	100
CC(C)NCC(O)COc1ccc(CC(N)=O)cc1 (stereo unspecified)	24	38	–	–	–
O=C(O)c1cc(/N=N/c2ccc(S(=O)(=O)Nc3ccccn3)cc2)ccc1O	–	–	348	241	–
Cc1cc(=O)n(-c2ccccc2)n1C [ANTIPYRINE]	19	12	–	–	100
CC(C)NCC(O)COc1cccc2[nH]ccc12 (stereo unspecified)	142	314	–	–	–
CC(C)NCC(O)COc1cccc2ccccc12 (stereo unspecified) [PROPRANOLOL]	683	839	–	–	100
CN1CC(=O)NC1=N [CREATININE]	–	–	13	22	100
CC(C(=O)O)c1cccc(C(=O)c2ccccc2)c1 (stereo unspecified) [KETOPROFEN]	62	101	–	–	100
OC[C@H]1O[C@@H](O[C@@H]2[C@@H](CO)O[C@](O)(CO)[C@H]2O)[C@H](O)[C@@H](O)[C@H]1O	22	29	–	–	–
COc1ccc(CCN(C)CCCC(C#N)(c2ccc(OC)c(OC)c2)C(C)C)cc1OC (stereo unspecified)	–	–	–	–	100
OC[C@H]1O[C@H](OC[C@H]2O[C@H](O[C@]3(CO)O[C@H](CO)[C@@H](O)[C@@H]3O)[C@H](O)[C@@H](O)[C@@H]2O)[C@H](O)[C@@H](O)[C@H]1O	24	34	–	–	–
NS(=O)(=O)c1cc(C(=O)O)c(NCc2ccco2)cc1Cl [FUROSEMIDE]	56	92	–	–	50
CC(C)C[C@H](N)C(=O)O [LEUCINE]	–	–	11	18	100
NC(=O)N1c2ccccc2C=Cc2ccccc21 [CARBAMAZEPINE]	70	144	–	–	100
NC(N)=O [UREA]	–	–	26	23	100
COc1ccc2cc([C@H](C)C(=O)O)ccc2c1 [NAPROXEN]	–	–	183	109	100
C=CCOc1ccccc1OCC(O)CNC(C)C (stereo unspecified)	120	277	–	–	–
COCCc1ccc(OCC(O)CNC(C)C)cc1 (stereo unspecified)	–	–	179	82	–
NC[C@H]1CC[C@H](C(=O)O)CC1	20	14	–	–	–
